# Experimental data from US20120184016A1, “NOVEL PROTEIN AND GENE THAT CODES THEREFOR” (priority 2009, published 2012).
# Columns and labels:
# [1] = tested on: recombinant β-galactoside-α2,6-sialyltransferase N1C0; experiment: Sugar acceptor substrate specificity (sialic acid transfer to monosaccharides/disaccharides); assay type: biochemical, Photobacterium leiognathi strain JT-SHIZ-119; set-up: Relative activity: concentration or dose not given beside the values; conditions: for Transferred NeuAc / transfer of sialic acid to the sugar acceptor substrate (in words): purified enzyme; for Transferred NeuAc: substance used as sugar acceptor substrate; for Relative activity: sialyltransferase activity represented by 100 for lactose; for transfer of sialic acid to the sugar acceptor substrate (in words): among 11 monosaccharides and disaccharides
# Protocol: Sialyltransferase activity was measured by a method described in J. Biochem., 120, 104-110 (1996) (which is hereby incorporated by reference in its entirety). Specifically, the enzyme reaction was performed using a reaction solution (30 μL) containing CMP-NeuAc (70 nmol, containing about 20000 cpm CMP-NeuAc in which NeuAc was labeled with ^14C; NeuAc represents N-acetylneuraminic acid) as a sugar donor substrate, lactose (1.25 μmol) as a sugar acceptor substrate, NaCl added to give a concentration of 0.5 M, and the enzyme prepared as described above. The enzyme reaction was carried out at 25° C. for about 10 to 180 minutes. After completion of the reaction, 1.97 mL of 5 mM phosphate buffer (pH 6.8) was added to the reaction solution, which was then applied to a Dowex 1×8 (PO4^3− form, 0.2×2 cm, manufactured by Bio-Rad Laboratories, Inc.) column. The radioactivity contained in the reaction product contained in the eluate (0 to 2 mL) from this column, that is, sialyllactose, was measured to calculate the enzyme activity. One enzyme unit (1 U) is defined as the amount of enzyme required to transfer one micromole of sialic acid per minute.
# Sialic acid transfer reaction was performed using the purified enzyme, JT-SHIZ-119-derived recombinant β-galactoside-α2,6-sialyltransferase SHIZ119-N1C0, prepared in Example 3 and using various monosaccharides/disaccharides as sugar acceptor substrates. The reaction was performed by the method described in J. Biochem., 120, 104-110 (1996).
# The monosaccharides used as sugar acceptor substrates were the following eight types: methyl-α-D-galactopyranoside (Gal-α-OMe), methyl-β-D-galactopyranoside (Gal-β-OMe), methyl-α-D-glucopyranoside (Glc-α-OMe), methyl-β-D-glucopyranoside (Glc-β-OMe), methyl-α-D-mannopyranoside (Man-α-OMe), methyl-β-D-mannopyranoside (Man-(3-OMe), N-acetylgalactosamine (GalNAc), and N-acetylglucosamine (GlcNAc). The disaccharides used were the following three types: lactose (Gal-β1,4-Glc), N-acetyllactosamine (Gal-β1,4-GlcNAc), and Gal-β1,3-GalNAc.
# Note that the relative activity for each acceptor substrate is based on the sialyltransferase activity represented by 100 for lactose.
# [2] = tested on: JT-SHIZ-119-derived recombinant β-galactoside-α2,6-sialyltransferase N1C0 (neuraminidase activity); experiment: Substrate specificity of neuraminidase activity with PA-sugar chains, HPLC; assay type: biochemical, Photobacterium leiognathi strain JT-SHIZ-119; conditions: 30° C. for 18 hours; FIGS. 3-5, 3-7, 3-8
# Protocol: The substrate specificity of neuraminidase, that is, the linkage mode of sialic acid to a sugar chain that is cleaved by the neuraminidase can be determined by, but not limited to, a method using a pyridylaminated sugar chain. More specifically, the enzyme reaction by neuraminidase is performed using PA sugar chains in which sialic acid is linked by α2,3-linkage, α2,6-linkage, or α2,8-linkage (for example, pyridylaminated sugar chains such as PA-Sugar Chain 029, PA-Sugar Chain 023, and PA-Sugar Chain 034 available from Takara Bio Inc.). The reaction product is analyzed by high performance liquid chromatography, and the amount of sialic acid that was cleaved is calculated from the retention time and peak area of the reaction product.
# To reveal the specificity of the neuraminidase activity of the JT-SHIZ-119-derived recombinant β-galactoside-α2,6-sialyltransferase N1C0, reactions using a PA-sugar chain shown in Table 4, to which sialic acid is linked via α2,3-, α2,6-, or α2,8-linkage (PA-Sugar Chain 029, PA-Sugar Chain 023, or PA-Sugar Chain 034, manufactured by Takara Bio Inc.) as a substrate were performed.
# To a purified enzyme solution of the JT-SHIZ-119-derived recombinant β-galactoside-α2,6-sialyltransferase N1C0 (equivalent to 0.6 U as sialyltransferase activity), 1.5 μL of a 10 pmol/μL PA-sugar chain was added, followed by reaction at 30° C. for 18 hours. After completion of the reaction, the reaction solution was treated at 100° C. for 2 minutes to inactivate the enzyme, followed by HPLC to analyze the reaction product. In the case of using PA-Sugar Chain 023 as the substrate, the pyridylaminated sugar chain was eluted and analyzed under the same conditions as those in Example 1. In the case of using PA-Sugar Chain 029 or PA-Sugar Chain 034 as the substrate, the elution was performed using eluent A (100 mM acetate-triethylamine, pH 5.0) and eluent B (100 mM acetate-triethylamine containing 0.5% n-butanol, pH 5.0) with a linear gradient of 0 to 100% eluent B (0 to 35 min), 100% eluent B (35 to 50 min), and then a linear gradient of 100% to 30% eluent B (51 to 75 min). The analysis was performed under the conditions of Example 1. FIGS. 3-2 to 3-8 show the results.
Molecule,Transferred NeuAc [1],Relative activity [1],transfer of sialic acid to the sugar acceptor substrate (in words) [1],HPLC peak after reaction of the PA-sugar chain with the purified enzyme solution [2]
"CO[C@@H]1O[C@H](CO)[C@@H](O)[C@H](O)[C@@H]1O [Methyl-β-D-mannopyranoside, methyl-β-D-mannopyranoside]",0.04 nmol/min,1%,–,–
"CC(=O)N[C@H]1C(O)O[C@H](CO)[C@@H](O)[C@@H]1O (some centres unmarked) [N-Acetylglucosamine, N-acetylglucosamine]",<0.01 nmol/min,–,–,–
"OC[C@H]1O[C@@H](O[C@H]2[C@H](O)[C@@H](O)C(O)O[C@@H]2CO)[C@H](O)[C@@H](O)[C@H]1O (some centres unmarked) [Lactose, lactose]",2.88 nmol/min,100%,efficiently transferred,–
"CC(=O)N[C@H]1C(O)O[C@H](CO)[C@H](O)[C@@H]1O[C@@H]1O[C@H](CO)[C@H](O)[C@H](O)[C@H]1O (stereo partly drawn) [Gal-β1,3-GalNAc]",1.68 nmol/min,58%,efficiently transferred,–
"CC(=O)NC1C(O)CC(OC2C(O)C(CO)OC(OC(C(O)CO)C(O)C(O)CNc3ccccn3)C2O)(C(=O)O)OC1C(O)C(O)CO (centres unmarked) [PA-Sugar Chain 029, Neu5Acα2-3Galβ1-4Glc-PA]",–,–,–,corresponds to PA-Sugar Chain 029
"CC(=O)N[C@H]1C(O)O[C@H](CO)[C@@H](O[C@@H]2O[C@H](CO)[C@H](O)[C@H](O)[C@H]2O)[C@@H]1O (some centres unmarked) [N-Acetyllactosamine, N-acetyllactosamine]",2.96 nmol/min,103%,efficiently transferred,–
"CO[C@@H]1O[C@H](CO)[C@@H](O)[C@H](O)[C@H]1O [Methyl-β-D-glucopyranoside, methyl-β-D-glucopyranoside]",<0.01 nmol/min,–,–,–
"CO[C@H]1O[C@H](CO)[C@@H](O)[C@H](O)[C@H]1O [Methyl-α-D-glucopyranoside, methyl-α-D-glucopyranoside]",<0.01 nmol/min,–,–,–
"CC(=O)N[C@H]1C(O)O[C@H](CO)[C@H](O)[C@@H]1O (some centres unmarked) [N-Acetylgalactosamine, N-acetylgalactosamine]",0.29 nmol/min,10%,efficiently transferred,–
"N-Acetyllactosamine type, disialylated biantennary [PA-Sugar Chain 023]",–,–,–,corresponds to PA-Sugar Chain 001
"CO[C@@H]1O[C@H](CO)[C@H](O)[C@H](O)[C@H]1O [Methyl-β-D-galactopyranoside, methyl-β-D-galactopyranoside]",1.1 nmol/min,38%,efficiently transferred,–
"CO[C@H]1O[C@H](CO)[C@H](O)[C@H](O)[C@H]1O [Methyl-α-D-galactopyranoside, methyl-α-D-galactopyranoside]",0.04 nmol/min,1%,–,–
GD1b-hexasaccharide [PA-Sugar Chain 034],–,–,–,corresponds to PA-Sugar Chain 034
"CO[C@H]1O[C@H](CO)[C@@H](O)[C@H](O)[C@@H]1O [Methyl-α-D-mannopyranoside, methyl-α-D-mannopyranoside]",<0.01 nmol/min,–,–,–
